The values that follow come from US20230219946A1, “PYRIMIDIN-4(3H)-ONE HETEROCYCLIC COMPOUND, PREPARATION METHOD THEREOF, AND PHARMACEUTICAL USE THEREOF” (Beijing Innocare Pharma Tech Co., Ltd., priority 2020, published 2023).

Data set [1] addresses T1, Recombinant human SHP2 full-length protein (Homo sapiens, UniProt Q06124).
T1 construct: Recombinant human SHP2 full-length protein
T1 sequence (Q06124 1-593): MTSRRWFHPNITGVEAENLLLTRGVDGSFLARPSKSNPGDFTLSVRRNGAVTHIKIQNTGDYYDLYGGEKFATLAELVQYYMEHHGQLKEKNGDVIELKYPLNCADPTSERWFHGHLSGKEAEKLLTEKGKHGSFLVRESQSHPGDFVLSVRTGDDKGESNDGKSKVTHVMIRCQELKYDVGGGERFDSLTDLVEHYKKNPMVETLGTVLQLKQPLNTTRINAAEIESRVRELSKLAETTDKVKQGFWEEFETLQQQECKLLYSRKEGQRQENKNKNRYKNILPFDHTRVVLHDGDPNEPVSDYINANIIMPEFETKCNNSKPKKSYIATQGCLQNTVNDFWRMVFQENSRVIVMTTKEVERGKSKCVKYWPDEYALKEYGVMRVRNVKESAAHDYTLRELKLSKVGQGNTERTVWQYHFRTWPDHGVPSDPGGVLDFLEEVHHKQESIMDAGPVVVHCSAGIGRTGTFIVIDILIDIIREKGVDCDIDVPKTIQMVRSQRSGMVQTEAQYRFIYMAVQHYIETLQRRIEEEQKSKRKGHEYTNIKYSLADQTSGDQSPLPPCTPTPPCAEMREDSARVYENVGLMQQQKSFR
Kind of data set: SHP2 activity inhibition measurement (fluorescence detection, surrogate substrate DiFMUP). The class given is biochemical. As to conditions: recombinant human SHP2 full-length protein activated with diphosphopeptide. Here is the method: SHP2 activity inhibition measurement
The effect of the compound of the present invention on SHP2 activity is evaluated by rapid fluorescence detection method using the surrogate substrate DiFMUP.
(§1) The experimental method is outlined as follows:
Recombinant human SHP2 full-length protein was expressed and purified by the protein purification and identification platform of Tsinghua University; diphosphopeptide (H2N-LN(pY)IDLDLV-(dPEG8)LST(pY)ASINFQK-amide) was synthesized by Nanjing GenScript Biotechnology Co., Ltd.; surrogate substrate DiFMUP was purchased from Thermo Fisher Scientific (Cat. No. D6567); reaction buffer contained the following components: 60 mM HEPES (pH 7.2), 75 mM NaCl, 75 mM KCl, 1 mM EDTA, 0.05% TWEEN 20, and 5 mM DTT.
The compound was dissolved in DMSO (Sigma, Cat. No. D5879) and diluted to 100 μM. The resulting solution was serially diluted 4-fold with DMSO to a minimum concentration of 6.1 nM, and each concentration point was diluted 25-fold with the reaction buffer.
10 μL of compound solution and 10 μL of 0.25 nM SHP2 protein solution were added to a 384-well microplate (Corning, Cat. No. 3575), mixed well, and incubated at room temperature for 30 min. 10 μL of 0.5 μM diphosphopeptide (dissolved in the reaction buffer) was added, mixed well, and incubated at room temperature for 30 to 60 min. Subsequently, 10 μL of 60 μM DiFMUP solution (dissolved in the reaction buffer) was added, mixed well, and let stand at room temperature. After 30 min, fluorescence signals were measured at 340 nm (excitation wavelength)/450 nm (emission wavelength) using a microplate reader (EnSpire, Perkin Elmer). The fluorescence intensity value was positively correlated with the degree of dephosphorylation of the substrate, thereby reflecting the catalytic activity of SHP2. […] An inhibition curve of the compound was plotted by XLfit software and the inhibitory IC50 was calculated.

A further data set deals with hERG potassium channel (Homo sapiens, UniProt Q12809). The note with it: 3 μM test compound, whole-cell patch clamp, HEK293-hERG, room temperature. How it is done: All electrophysiological experiments were conducted at room temperature.
hERG potassium channel, sequence (Q12809 whole entry): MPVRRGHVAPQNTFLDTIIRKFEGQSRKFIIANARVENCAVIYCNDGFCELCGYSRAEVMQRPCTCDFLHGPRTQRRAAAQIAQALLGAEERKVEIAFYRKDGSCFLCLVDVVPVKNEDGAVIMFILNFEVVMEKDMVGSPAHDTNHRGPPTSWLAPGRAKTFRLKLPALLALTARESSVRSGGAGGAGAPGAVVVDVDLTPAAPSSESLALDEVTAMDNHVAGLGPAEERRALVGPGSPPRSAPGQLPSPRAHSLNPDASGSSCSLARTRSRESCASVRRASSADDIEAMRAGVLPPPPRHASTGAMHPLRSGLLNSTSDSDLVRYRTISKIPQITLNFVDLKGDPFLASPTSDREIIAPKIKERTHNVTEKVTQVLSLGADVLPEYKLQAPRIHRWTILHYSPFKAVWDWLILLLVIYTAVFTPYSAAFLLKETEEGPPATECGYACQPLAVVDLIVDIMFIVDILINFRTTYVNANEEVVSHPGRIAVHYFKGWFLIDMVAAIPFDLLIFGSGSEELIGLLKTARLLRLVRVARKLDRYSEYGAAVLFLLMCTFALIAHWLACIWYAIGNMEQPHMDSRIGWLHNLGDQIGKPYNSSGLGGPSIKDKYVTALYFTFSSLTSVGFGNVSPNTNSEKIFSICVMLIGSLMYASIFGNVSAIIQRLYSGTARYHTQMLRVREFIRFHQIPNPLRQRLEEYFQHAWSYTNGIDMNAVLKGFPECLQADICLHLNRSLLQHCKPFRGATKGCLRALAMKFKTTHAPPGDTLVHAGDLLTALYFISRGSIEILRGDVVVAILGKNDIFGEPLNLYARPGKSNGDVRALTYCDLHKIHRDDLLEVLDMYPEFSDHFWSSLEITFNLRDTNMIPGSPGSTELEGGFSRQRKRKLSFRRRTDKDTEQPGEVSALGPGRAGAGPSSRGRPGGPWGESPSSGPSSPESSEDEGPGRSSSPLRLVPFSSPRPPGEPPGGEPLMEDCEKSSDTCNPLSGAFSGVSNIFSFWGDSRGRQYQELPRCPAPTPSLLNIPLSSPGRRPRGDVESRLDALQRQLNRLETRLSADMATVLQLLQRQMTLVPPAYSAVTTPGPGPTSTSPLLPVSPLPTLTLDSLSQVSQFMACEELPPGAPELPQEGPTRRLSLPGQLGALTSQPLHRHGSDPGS
Data set [2] has as its system human non-small cell lung cancer cell line NCI-H358. Kind of data set: NCI-H358 cell proliferation inhibition (luminescent cell viability assay, CTG). It counts as cell-based. The note with it: 120 h, NCI-H358 cells, 5 days, CellTiter-Glo. How it is done: Determination of NCI-H358 cell proliferation inhibition
The effect of the compound of the present invention on proliferation of human non-small cell lung cancer cell line NCI-H358 is evaluated by luminescent cell viability assay.
as §1
The compound was dissolved in DMSO (Sigma, Cat. No. D5879) and diluted to 5 mM. The resulting solution was serially diluted 4-fold with DMSO to a minimum concentration of […], and each concentration point was diluted 50-fold with RPMI 1640 Medium (Thermo Fisher Scientific, Cat. No. 11995073). When the IC50 value of the compound was low, the initial concentration of the compound was further reduced.
NCI-H358 cells (ATCC, Cat. No. CRL-5807) were cultured in RPMI 1640 Complete Medium [RPMI 1640 Medium was supplemented with 10% FBS (GBICO, Cat. No. 10099-141) and 100 units/mL Penicillin-Streptomycin (Thermo Fisher Scientific, Cat. No. 15140122)]. The cells (15,000 cells/mL) were seeded in 90 μL of Complete Medium on a 96-well plate. After culturing overnight, 10 μL of compound solution was added to each well and cultured at 37° C. in a 5% CO2 incubator for 5 days. According to the instruction from the CellTilter-Glo (CTG) kit (Promega, Cat. No. G7572), the cell culture plate was removed from incubator and equilibrated to room temperature. The cells were lysed fully with 50 μL of CTG reagent and placed at room temperature for 10 min. A luminescence signal was read by the microplate reader (EnVision, Perkin Elmer). […] An inhibition curve of the compound was plotted by XLfit software and the inhibitory IC50 was calculated.

Structures can show the parent of a compound that is named as a salt.

As for `Cn1cc2c(Cl)c(Sc3cnc(N4CCC5(CCC[C@H]5N)CC4)n(C)c3=O)ccc2n1` [Compound 7, (R)-2-(1-amino-8-azaspiro[4.5]decan-8-yl)-5-((4-chloro-2-methyl-2H-indazole-5-yl)thio)-3-methylpyrimidin-4(3H)-one hydrochloride], the IC50 in data set [1] worked out at 12 nM; in data set [2] it was 575 nM. Further, the “hERG current inhibition percentage at 3 μM solubility (n = 2)” value at hERG potassium channel is recorded as 10%.
